{"source": "patent US20250171404A1", "about": "“PCNA INHIBITORS AND USES THEREOF” (CITY OF HOPE, priority 2022, published 2025)", "key": {"[1]": {"system": "SK-N-DZ neuroblastoma cells", "experiment": "Apoptosis (sub-G1, TUNEL assay), cancer cells", "assay_type": "cell-based, human", "details": "500 nM, 24 h", "method": "FIGS. 3A-3D. Therapeutic properties of AOH1996. FIG. 3A: Normal cells (7SM0032) or cancer cells (SH-SY5Y and SK-N-BE(2)c) cells were fixed, stained with PI, and analyzed by flow cytometry following treatment with 500 nM AOH1996 for the indicated time. FIG. 3B: SK-N-DZ neuroblastoma cells and nonmalignant 7SM0032 stem cells were incubated with 500 nM AOH1996 for 24 h. Then, after being fixed on slides, cell apoptosis were analyzed by a TUNEL assay. Left: TMR fluorophore attached to the free ends of DNA indicates cells undergoing apoptosis. DAPI stained nuclei also shown. Right: Average abundance ±S.D. of apoptotic 7SM0032 (black histogram) and SK-N-DZ (grey histogram) cells relative to the total number of cells are shown in 5 randomly selected fields. […] The relative number of colonies determined in triplicates for each treatment condition were averaged and graphed ±SDs (*, P<0.01). […] Cell growth was measured as the percentage of cell confluence by imaging every 6 h for a total of 48 h.\nCell apoptosis was measured on a chamber slide at a seeding density of 1×10^5/mL. After treatment with 500 nM AOH1996 for 24 h, cells were fixed and analyzed by a TUNEL assay using the TMR red in situ cell death detection kit (Roche Diagnostics)."}, "[2]": {"system": "MDA-MB-468 xenograft tumors", "experiment": "Xenograft tumor model, breast cancer", "assay_type": "in vivo, mice", "details": "40 mg/kg twice daily, oral, vs vehicle", "method": "FIGS. 4A-4H. Pharmacokinetics and anti-tumor growth activity of AOH1996 in vivo. FIG. 4A: After oral administration, the plasma concentrations of AOH1996 from three male and three female ES1^e/SCID mice at the indicated time points were averaged and graphed ±S.D. The inset contains PK parameters determined by a standard noncompartmental method. FIG. 4B: A similar PK study of AOH1996 was performed in dogs. FIGS. 4C-4E: Mice bearing the xenograft tumors of neuroblastoma (FIG. 4C: SK-N-BE(2)c), breast cancer (FIG. 4D: MDA-MB-468), and small-cell lung cancer (FIG. 4E: H82) were given vehicle only (black) or 40 mg/kg of AOH1996 (grey) twice daily immediately after the first measurement. Tumor sizes were measured by a dial caliper each week. Tumor volumes (0.4×L×W^2) were averaged and graphed ±S.E. (*, P<0.01). FIG. 4F: Animal body weight was monitored throughout the studies as an indicator of toxicity. […] FIG. 4G: The levels of phosphor-Chk1 (pChk1) and γH2A.X in SK-N-BE(2)c derived tumor samples were analyzed by IHC. […] The p values determined by the Log-rank (Mantel-Cox) test between combination treatment and each of the control groups are p=0.0003 (Combination vs. NoRx), p=0.005 (Combination vs. AOH1996 alone), and p=0.024 (Combination vs. CPT-11 alone).\nIn vivo tumor model. […] Tumor size and animal weight were measured weekly. […]"}}, "data": [{"compound": "COc1cccc(Oc2ccccc2NC(=O)CNC(=O)c2cccc3ccccc23)c1", "note": "[AOH1996, N-(2-((2-(3-methoxyphenoxy)phenyl)amino)-2-oxoethyl)-1-naphthamide]", "values": [{"measurement": "apoptosis (sub-G1 population, TUNEL positivity)", "setting": "[1]", "result": "induced apoptosis"}, {"measurement": "tumor burden", "setting": "[2]", "result": "significantly reduced tumor burden"}]}]}
